# Measured values reported in paper PMC8286840, “Identifying SARS-CoV-2 antiviral compounds by screening for small molecule inhibitors of Nsp3 papain-like protease” (Biochemical Journal, 2021).
# Where a name gives a salt, the structure may show the parent alone. Read-outs that look alike come from different tables or passages of the source.
# How the values were obtained:
# [1] = target: T1, SARS-CoV-2 PLpro (nsp3 1564–1878) (Severe acute respiratory syndrome coronavirus 2, UniProt P0DTD1); assay: biochemical; set-up: FRET-quenched peptide (Pro3) cleavage by PLpro, 10 min pre-incubation, slope over 20 min, normalised to no-compound control; details: low concentration screen, read-out: % of control remaining
# [2] = target: T1, SARS-CoV-2 PLpro (nsp3 1564–1878); assay: biochemical; set-up: FRET-quenched peptide (Pro3) cleavage by PLpro, 10 min pre-incubation, slope over 20 min, normalised to no-compound control; details: high concentration screen, read-out: % of control remaining
smiles,measurement,setting,value
CCc1cc(Nc2nccc(-c3c(-c4ccc(OC)c(C(=O)Nc5c(F)cccc5F)c4)nc4ccccn34)n2)c(OC)cc1N1CCC(N2CCN(S(C)(=O)=O)CC2)CC1 [GSK1904529A],remaining activity at 1.25 µM,[1]; Well no.=5013,89.7%
same,remaining activity at 3.75 µM,[2]; Well no.=5013,89.5%
COc1ncc(-c2ccc3nccc(-c4ccnnc4)c3c2)cc1NS(=O)(=O)c1ccc(F)cc1F [GSK2126458],remaining activity at 1.25 µM,[1]; Well no.=5308,95.7%
same,remaining activity at 3.75 µM,[2]; Well no.=5308,94.1%
CNc1nc(-c2ccc3c(N)n[nH]c3c2)cc(N2C[C@@H](C(=O)NC3CCCCC3)CC[C@H]2C)n1 [GSK2334470],remaining activity at 1.25 µM,[1]; Well no.=5464,94.9%
same,remaining activity at 3.75 µM,[2]; Well no.=5464,101%
Cc1c(Cn2c(C)nc3c(C(=O)O)cc(N4CCOCC4)cc32)cccc1C(F)(F)F [GSK2636771],remaining activity at 1.25 µM,[1]; Well no.=5178,93.1%
same,remaining activity at 3.75 µM,[2]; Well no.=5178,96.9%
CCc1ccc(N(CC(C)C)S(=O)(=O)c2ccc(OCC3CCOCC3)c(CO)c2)cc1 [GSK2981278],remaining activity at 1.25 µM,[1]; Well no.=8561,105%
same,remaining activity at 3.75 µM,[2]; Well no.=8561,101%
CN1C(=O)[C@@H](NC(=O)c2n[nH]c(Cc3ccccc3)n2)COc2ccccc21 [GSK2982772],remaining activity at 1.25 µM,[1]; Well no.=7074,96.7%
same,remaining activity at 3.75 µM,[2]; Well no.=7074,95.1%
"O=C(O)c1ccc(-c2c[nH]c3ncc(-c4ccccc4)cc23)cc1C1CCCC1 [GSK 650394 - 2-Cyclopentyl-4-(5-phenyl-1H-pyrrolo[2,3-b]pyridin-3-yl-benzoic acid]",remaining activity at 1.25 µM,[1]; Well no.=2676,96.9%
same,remaining activity at 3.75 µM,[2]; Well no.=2676,99.7%
CN1C(=O)[C@@H](NC(=O)c2cc(Cc3ccccc3)on2)COc2ccccc21 [GSK'481],remaining activity at 1.25 µM,[1]; Well no.=6534,104%
same,remaining activity at 3.75 µM,[2]; Well no.=6534,98.7%
"Cn1c(O)c(-c2[nH]c3ccccc3c2N=O)c2ccc(Br)cc21 [GSK-3 Inhibitor IX, Control, MeBIO]",remaining activity at 1.25 µM,[1]; Well no.=2427,106%
same,remaining activity at 3.75 µM,[2]; Well no.=2427,108%
O=Nc1c(-c2c(O)[nH]c3cc(Br)ccc23)[nH]c2ccccc12 [GSK-3 Inhibitor IX],remaining activity at 1.25 µM,[1]; Well no.=2466,95.8%
same,remaining activity at 3.75 µM,[2]; Well no.=2466,98.6%
Cc1cc(Nc2nc(-c3ccccc3)nc3ccccc23)n[nH]1 [GSK-3 Inhibitor XIII],remaining activity at 1.25 µM,[1]; Well no.=2502,94.8%
same,remaining activity at 3.75 µM,[2]; Well no.=2502,96.8%
CC(=O)O/N=C1/C(c2c(O)[nH]c3cc(Br)ccc23)=Nc2ccccc21 [GSK-3 Inhibitor X],remaining activity at 1.25 µM,[1]; Well no.=2468,101%
same,remaining activity at 3.75 µM,[2]; Well no.=2468,105%
Cn1sc(=O)n(Cc2ccccc2)c1=O [GSK-3b Inhibitor I],remaining activity at 1.25 µM,[1]; Well no.=2460,106%
same,remaining activity at 3.75 µM,[2]; Well no.=2460,108%
O=C1NC(=O)C(c2cn(CCCO)c3ncccc23)=C1c1cnccn1 [GSK-3b Inhibitor XI],remaining activity at 1.25 µM,[1]; Well no.=2470,101%
same,remaining activity at 3.75 µM,[2]; Well no.=2470,102%
CC(C)S(=O)(=O)c1ccc2nccc(Nc3ccc4scnc4c3)c2c1 [GSK-872],remaining activity at 1.25 µM,[1]; Well no.=6584,96.3%
same,remaining activity at 3.75 µM,[2]; Well no.=6584,108%
CCOC(=O)CCNc1cc(N2CCc3ccccc3CC2)nc(-c2ccccn2)n1 [GSK-J4],remaining activity at 1.25 µM,[1]; Well no.=5779,106%
same,remaining activity at 3.75 µM,[2]; Well no.=5779,106%
c1ccc(-c2n[nH]c3c2oc2ccccc23)cc1 [GTP-14564],remaining activity at 1.25 µM,[1]; Well no.=2417,104%
same,remaining activity at 3.75 µM,[2]; Well no.=2417,105%
Cc1cc(SCc2sc(-c3ccc(C(F)(F)F)c(F)c3)nc2C)ccc1OCC(=O)O [GW0742],remaining activity at 1.25 µM,[1]; Well no.=5214,100%
same,remaining activity at 3.75 µM,[2]; Well no.=5214,98.5%
CN(CCOc1ccc(C[C@H](Nc2ccccc2C(=O)c2ccccc2)C(=O)O)cc1)c1ccccn1 [GW1929],remaining activity at 1.25 µM,[1]; Well no.=8120,97.1%
same,remaining activity at 3.75 µM,[2]; Well no.=477,96.6%
same,remaining activity at 3.75 µM,[2]; Well no.=8120,94.2%
CN(C)c1cc2c(Nc3ccc4c(cnn4Cc4ccccc4)c3)ncnc2cn1 [GW2974],remaining activity at 1.25 µM,[1]; Well no.=523,103%
same,remaining activity at 3.75 µM,[2]; Well no.=523,100%
CC(C)c1onc(-c2c(Cl)cccc2Cl)c1COc1ccc(/C=C/c2cccc(C(=O)O)c2)c(Cl)c1 [GW4064],remaining activity at 1.25 µM,[1]; Well no.=5314,101%
same,remaining activity at 3.75 µM,[2]; Well no.=5314,98.2%
O=C1Nc2ccc(I)cc2/C1=C/c1cc(Br)c(O)c(Br)c1 [GW5074],remaining activity at 1.25 µM,[1]; Well no.=525,97.2%
same,remaining activity at 3.75 µM,[2]; Well no.=525,96.1%
CC(C)(Sc1ccc(CCN(CCCCC2CCCCC2)C(=O)NC2CCCCC2)cc1)C(=O)O [GW7647],remaining activity at 1.25 µM,[1]; Well no.=621,95.2%
same,remaining activity at 3.75 µM,[2]; Well no.=621,96.3%
O=C(O)CCc1ccc(NCc2cccc(Oc3ccccc3)c2)cc1 [GW9508],remaining activity at 1.25 µM,[1]; Well no.=5182,103%
same,remaining activity at 1.25 µM,[1]; Well no.=8531,97.9%
same,remaining activity at 3.75 µM,[2]; Well no.=5182,99.8%
same,remaining activity at 3.75 µM,[2]; Well no.=8531,98.8%
O=C(Nc1ccccc1)c1cc([N+](=O)[O-])ccc1Cl [GW9662],remaining activity at 1.25 µM,[1]; Well no.=1122,88.3%
same,remaining activity at 3.75 µM,[2]; Well no.=1122,89.4%
Cn1cc(/C=C2\C(=O)Nc3cccnc32)c2ccccc21 [GW441756],remaining activity at 1.25 µM,[1]; Well no.=2791,103%
same,remaining activity at 3.75 µM,[2]; Well no.=2791,103%
O=C(NC1CCOCC1)c1ccc(-c2cc(-c3c[nH]nc3-c3ccccn3)ccn2)cc1 [GW788388],remaining activity at 1.25 µM,[1]; Well no.=5067,102%
same,remaining activity at 3.75 µM,[2]; Well no.=5067,106%
O=C(NCC1CCOCC1)c1cnc(Nc2ccc(Cl)cc2Cl)nc1C(F)(F)F [GW842166X],remaining activity at 1.25 µM,[1]; Well no.=5085,97.9%
same,remaining activity at 3.75 µM,[2]; Well no.=5085,100%
"O=C1Nc2ccc(I)cc2/C1=C/c1cc(Br)c(O)c(Br)c1 [GW 5074 - 3-(3,5-Dibromo-4-hydroxy-benzylidene)-5-iodo-1,3-dihydro-indol-2-one]",remaining activity at 1.25 µM,[1]; Well no.=2392,97.9%
same,remaining activity at 3.75 µM,[2]; Well no.=2392,101%
"Cn1cc(/C=C2\C(=O)Nc3cccnc32)c2ccccc21 [GW 441756 - 1,3-Dihydro-3-[(1-methyl-1H-indol-3-yl)methylene]-2H-pyrrolo[3,2-b]pyridin-2-one]",remaining activity at 1.25 µM,[1]; Well no.=2488,102%
same,remaining activity at 3.75 µM,[2]; Well no.=2488,100%
CS(=O)(=O)CCNCc1nc(-c2ccc3ncnc(Nc4ccc(OCc5cccc(F)c5)c(Cl)c4)c3c2)cs1 [GW 583340 dihydrochloride - N-[3-Chloro-4-[(3-fluorophenyl)methoxy]phenyl]-6-[2-[[[2-(methylsulfonyl)ethyl]amino]methyl]-4-thiazolyl]-4-quinazolinamine dihydrochloride],remaining activity at 1.25 µM,[1]; Well no.=2490,94.4%
same,remaining activity at 3.75 µM,[2]; Well no.=2490,94.9%
NC(=O)c1ccc(CNC(=O)NC[C@H]2CN(Cc3ccc(Cl)c(Cl)c3)CCO2)cc1 [GW 766994],remaining activity at 1.25 µM,[1]; Well no.=8595,104%
same,remaining activity at 3.75 µM,[2]; Well no.=8595,103%
"COc1cc2ncn(-c3cc(OCc4ccccc4C(F)(F)F)c(C(N)=O)s3)c2cc1OC [GW 843682X - 5-(5,6-Dimethoxy-1H-benzimidazol-1-yl)-3-[[2-(trifluoromethyl)phenyl]methoxy]-2-thiophenecarboxamide]",remaining activity at 1.25 µM,[1]; Well no.=2668,92.6%
same,remaining activity at 3.75 µM,[2]; Well no.=2668,96.9%
